From PMC10989073, “Antineoplastic effect of compounds C14 and P8 on TNBC and radioresistant TNBC cells by stabilizing the K-Ras4B^G13D/PDE6δ complex” (Frontiers in Oncology, 2024) come the findings set out here.

Where two headings read alike, the source gives them in different places.

What all share (format): cell-based, human
In series [1] the test system is cyclin D1 and GSK3β in MCF-10A cells. Put plainly: Western blotting of cyclin D1 and GSK3β. The conditions noted are these: 3 h, densitometry; for reduction in cyclin D1 protein: C14 and P8 at IC50-24 (Figure 7 legend); for reduction in GSK3β: IC50-24 (Figure 7 legend). As to the method:
(§1) To determine the effect of the C14 and P8 compounds over the protein effectors of K-Ras4B, AKT, and ERK, immunoblotting assays were conducted with specific antibodies. In brief, MCF-10A, MDA-MB-231, and MDA-MB-231RR cells were plated in 100-mm culture dishes until 80% of confluents. Cell adhesion was allowed for 24 h. […] After pre-treatment, cells were stimulated with 100 ng/ml EGF for 10 minutes to promote AKT and ERK activation. Later, the whole-cell extracts were obtained by the lysis of the cells (Cytoskeleton) in the presence of proteases and phosphatase inhibitors. Subsequently, the protein extracts were incubated at 4°C for 40 minutes to be clarified by centrifugation for 10 minutes at 14,000 rpm, at 4°C. The protein concentration of each extract was determined by using the Precision Red Advanced Protein Assay Reagent (Cytoskeleton) Then, approximately 25 μg of protein extract was electrophoresed in 10% sodium dodecyl sulfate–polyacrylamide gel electrophoresis (SDS-PAGE) and transferred to polyvinylidene fluoride (PVDF) membranes (Millipore, Billerica, MA, USA). Blots were probed using the following primary antibodies: Total ERK (Cell Signaling, Danvers, MA, USA), pERK (Cell Signaling), Total AKT (Cell Signaling), pAKT (Cell Signaling), GSK3β (Cell Signaling), and cyclin D1 (Abcam) at a 1:1,000 dilution. As a control, an anti-GAPDH antibody (GeneTex, Irvine, CA, USA) was employed at a 1:100,000 dilution and γ-Tubulin (Invitrogen) 1:5,000. Densitometric analysis of blots was performed using the software ImageJ version 1.45 (National Institutes of Health, Bethesda, […], USA).

Series [2] relates to MDA-MB-231RR cells. Put plainly: XTT cell viability assay and IC50 determination. Particulars: for IC50: XTT, ± SD. As to the method: (§2) In order to evaluate the effect of the C14 and P8 compounds over MCF-10A, MCF-7, MDA-MB-231, and […] cell lines, the IC50 of those molecules was determined. In brief, all the cell lines were seeded at a density of 15,000 cells per well in a 96-well microtiter plate (Corning) in a corresponding growth medium for 24 h. Then, cells were treated with increasing concentrations (from 0 to 200 μM) of the C14 and P8 compounds (Enamine, Kyiv, Ukraine). As a positive control, increased concentrations of cisplatin (from 0 to 200 µM) (Accord, Mexico City, Mexico) were employed. Due to that, dimethyl sulfoxide (DMSO) was used as a vehicle, and its increased concentrations were evaluated as the negative control. All the samples were maintained under growth conditions for 24 h and 48 h. At the end of each time, cell viability was determined using the XTT Cell Proliferation Kit II (Roche Applied Science, Mannheim, Germany) following the manufacturer’s protocol. The absorbance was measured in a spectrophotometer Synergy-HTX (BioTek) at a wavelength of 450–500 nm with a reference wavelength of 650 nm. Cell proliferation was expressed as a percentage of viability [(absorbance of treated cells/absorbance of untreated cells × 100)] ± SD.

The subject of series [3] is MCF-7 cells. Put plainly: XTT cell viability assay and IC50 determination. Particulars: ± SD. The procedure:
as §2

The subject of series [4] is MCF-10A cells. Put plainly: XTT cell viability assay and IC50 determination. The conditions noted are these: for IC50: XTT, ± SD; for concentration required to observe any effect on cell viability: MCF-10A control cells, statistical analysis. The procedure: as §2
Background: Tetrazolium dyes change colour on reduction, which living cells bring about.

Series [5] has as its system AKT and ERK phosphorylation in MDA-MB-231 cells. Put plainly: Western blotting of pAKT and pERK. The conditions noted are these: MDA-MB-231, IC50-48 for 3 h, EGF 100 ng/ml 10 min, densitometry. The procedure: as §1
In series [6] the test system is MDA-MB-231RR cells. Put plainly: Clonogenic assay. The conditions noted are these: for reduction in colony formation: 10 to 12 days, C14 and P8 at IC50-48, cisplatin 100 µM, doxorubicin 0.5 µM. The procedure: (§3) The principal aim of a clonogenic assay is to evaluate the effect of chemotherapy agents or new drugs by the measurement of their ability to arrest tumor cell division and their ability to develop new colonies after their exposure to these new drugs ([56]). Therefore, the colony formation ability of the cell lines MCF-10A, MDA-MB-231, and MDA-MB-231RR was evaluated after their exposure to the C14 and P8 compounds. In brief, breast cancer cell lines were cultured in 6-well plates (Corning), seeding 300 cells per well, and incubated at 37°C in 5% CO2 for 24 h. Compounds C14 and P8 were added at the maximum evaluated concentration IC50-48. As controls, cells without treatment and cells treated in the presence of a vehicle (DMSO at 0.66%) were employed (Sigma-Aldrich). […] After 10 days of treatment, cells were fixed with 4% PFA and stained with 0.1% crystal violet in citric acid (Sigma-Aldrich) for 15 minutes. Subsequently, the dye present in the cells was extracted using isopropanol and read at 570 nm in a Synergy-HTX microplate reader (BioTek). Each test was performed in triplicate. Data were expressed as % colonies relative to the untreated control ([56]).

The subject of series [7] is MDA-MB-231 cells. Put plainly: Clonogenic assay. Particulars: MDA-MB-231, 10 to 12 days; C14 and P8 at IC50-48, cisplatin 100 µM, doxorubicin 0.5 µM. As to the method: as §3
Series [8] deals with Ras-GTP in MCF-10A cells. Put plainly: Ras activation pull-down assay (Raf-RBD). The conditions noted are these: 3 h pre-treatment (C14, P8 at IC50-48H), EGF 100 ng/ml 10 min. The procedure: Subsequently, the cells were stimulated with epidermal growth factor (EGF) (100 ng/ml) for 10 minutes. Lysates (1 mg/ml) were exposed to Ras GTP-binding protein (Raf-RBD), following the manufacturer’s instructions. Experiments for each cell type and condition were repeated three times.

The subject of series [9] is MCF-10A cells. Put plainly: Apoptosis/necrosis assay (Annexin V–propidium iodide, flow cytometry). As to the method:
Apoptosis and necrosis were determined using the Apoptosis/Necrosis Detection kit (Abcam, Cambridge, UK) according to the manufacturer’s instructions. In brief, approximately 500,000 cells were seeded in 6-well plates (Corning) for 24 h. […] Cells were harvested and collected by centrifugation. All the samples were analyzed in triplicate using flow cytometry equipment FACSCalibur instrument (BD Biosciences, San Jose, CA, USA) at […] and 575-nm emission. Data analysis was performed using the FlowJo software (Tree Star Inc., Ashland, OR, USA). All experiments were performed in triplicate.
In general terms: A flow cytometer gives signals particle by particle.

Setting [10] is: MCF-10A, 24 h, read-out: IC50-24.
Where [11] appears, read: MCF-10A, 48 h, read-out: IC50-48.

Take `O=C(CN1CCN(c2cccc(Cl)c2)CC1)N[C@@H]1CCOc2ccccc21` [P8, 2-[4-(3-chlorophenyl)piperazin-1-yl]-N-[(4R)-chroman-4-yl]acetamide]: in series [1], the “reduction in cyclin D1 protein” value is on record as 40%. Besides, the “reduction in GSK3β” value in series [1] amounted to 40%. The “concentration from which a significant inhibitory effect on viability is seen” value in [2] (48 h) is listed as at least 10 µM. The concentration for half-maximal inhibition (IC50) (in general, the midpoint of a concentration-inhibition curve) is 163 ± 16.8 µM in series [2] (Homo sapiens, 24 h, read-out: IC50-24); 156 ± 28.4 µM in series [2] (Homo sapiens, 48 h, read-out: IC50-48); 185 ± 15.3 µM in series [3] (Homo sapiens, MCF7, MCF-7, 24 h, read-out: IC50-24); 104 ± 49.8 µM in [3] (Homo sapiens, MCF7, MCF-7, 48 h, read-out: IC50-48); over 200 µM in series [4] (Homo sapiens, MCF-10A, 24 h, read-out: IC50-24); over 200 µM in series [4] (Homo sapiens, MCF-10A, 48 h, read-out: IC50-48). Further, the “concentration required to observe any effect on cell viability” value in [4] is listed as over 150 µM. Also, in series [5], the “reduction in pAKT” value is listed as “up to 70%”. Also, the “reduction in pERK” value in series [5] is reported as “up to 70%”. Further, the “reduction in colony formation” value is listed as “up to 99%” in series [6] and “up to 95%” in series [7]. In addition, the “reduction in Ras-GTP” value in series [8] is “approximately 40%”.

For `CN(CC(=O)NC1CCOc2ccccc21)Cc1cccc(Cl)c1` (stereo not shown) [C14, 2-[(3-chlorophenyl)-methyl-methyl-amino]-N-croman-4-yl-acetamide], the “reduction in cyclin D1 protein” value in series [1] is reported as 40%. In series [1], the “reduction in GSK3β” value is 10%. For the same molecule, the IC50 in series [2] (24 h, read-out: IC50-24) is 128 ± 2.6 µM; in series [2] (48 h, read-out: IC50-48) it was 70.6 ± 3.5 µM; in series [3] (MCF-7, 24 h, read-out: IC50-24) it was 174 ± 19 µM; in series [3] (MCF-7, 48 h, read-out: IC50-48), 134 ± 10.5 µM; in [4] (setting [10]), over 200 µM; in [4] (setting [11]), over 200 µM. Besides, the “concentration from which a significant inhibitory effect on viability is seen” value in series [2] (48 h) is recorded as at least 30 µM. For the same molecule, the “concentration required to observe any effect on cell viability” value in [4] is recorded as “higher than 100 µM”. Besides, in series [5], the “reduction in pAKT” value is “up to 60%”. In addition, the “reduction in pERK” value in [5] was “up to 70%”. Also, the “reduction in colony formation” value was “up to 90%” in [6] and “up to 95%” in series [7]. The colonies persisted in series [6] (C14 at IC50-48) was about 10%. The viability – broadly, a per cent measure of how many cells are alive, often set against a control – in [9] (24 h at IC50-24, flow cytometry) is on record as 91.1%. The “reduction in Ras-GTP” value in series [8] is given as “approximately 40%”.

`N.N.[Cl][Pt][Cl]` [Cisplatin, cisplatin, reference compound]: the IC50 was 200 µM in [2] (24 h, read-out: IC50-24); 104 ± 8.7 µM in series [2] (48 h, read-out: IC50-48); 150 ± 32.1 µM in series [3] (MCF-7, 24 h, read-out: IC50-24); 67.3 ± 20.6 µM in [3] (MCF-7, 48 h, read-out: IC50-48); 12 µM in [4] (setting [10]); 5.9 ± 1.6 µM in series [4] (setting [11]). Besides, the “reduction of cellular viability” value in series [4] (MCF-10A, at low concentrations) is on record as “more than 90%”. For the same molecule, the “reduction in colony formation” value is reported as 99% in series [6] and “significant reduction” in [7]. In addition, the apoptosis cells result in series [9] (24 h, cisplatin 100 µM, doxorubicin 0.5 µM) is reported as “over 70%”. Further, the “reduction in Ras-GTP” value in series [8] was “did not show an effect”.
